From ChEMBL document CHEMBL4507303, “Data for DCP probe TP-004” (2021)

What was measured:
[1] = biological target: ALK tyrosine kinase receptor (Homo sapiens) (UniProt Q9UM73); conditions: Compound concentration 1000.0 nM
[2] = biological target: Histamine H2 receptor (Homo sapiens) (UniProt P25021); conditions: Compound concentration 10.0 uM
[3] = biological target: Tyrosine-protein kinase FRK (Homo sapiens) (UniProt P42685); conditions: Compound concentration 1000.0 nM
[4] = biological target: Serine/threonine-protein kinase ICK (Homo sapiens) (UniProt Q9UPZ9); conditions: Compound concentration 1000.0 nM
Chain of Serine/threonine-protein kinase ICK (Homo sapiens) (Q9UPZ9 whole entry): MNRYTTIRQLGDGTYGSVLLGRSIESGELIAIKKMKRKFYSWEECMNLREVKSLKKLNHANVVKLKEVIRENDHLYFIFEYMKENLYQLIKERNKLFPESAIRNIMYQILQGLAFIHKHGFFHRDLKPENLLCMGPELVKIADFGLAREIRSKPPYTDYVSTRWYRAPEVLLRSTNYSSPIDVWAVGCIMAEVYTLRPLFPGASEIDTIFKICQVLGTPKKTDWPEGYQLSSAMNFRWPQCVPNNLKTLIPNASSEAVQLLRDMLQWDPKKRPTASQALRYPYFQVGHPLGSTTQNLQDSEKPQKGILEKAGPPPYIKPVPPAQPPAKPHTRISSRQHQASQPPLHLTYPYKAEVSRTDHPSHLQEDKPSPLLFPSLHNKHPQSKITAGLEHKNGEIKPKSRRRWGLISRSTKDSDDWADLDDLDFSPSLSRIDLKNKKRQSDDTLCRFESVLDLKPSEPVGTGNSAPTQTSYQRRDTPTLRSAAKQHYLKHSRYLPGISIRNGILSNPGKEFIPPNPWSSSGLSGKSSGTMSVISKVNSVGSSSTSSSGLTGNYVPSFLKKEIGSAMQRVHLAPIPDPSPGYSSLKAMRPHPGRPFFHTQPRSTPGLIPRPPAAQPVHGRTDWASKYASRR

[5] = biological target: Inhibitor of nuclear factor kappa-B kinase subunit alpha (Homo sapiens) (UniProt O15111); conditions: Compound concentration 1000.0 nM
[6] = biological target: Macrophage colony-stimulating factor 1 receptor (Homo sapiens) (UniProt P07333); conditions: Compound concentration 1000.0 nM
[7] = biological target: Serine/threonine-protein kinase 4 (Homo sapiens) (UniProt Q13043); conditions: Compound concentration 1000.0 nM
Chain of Serine/threonine-protein kinase 4 (Homo sapiens) (Q13043 whole entry): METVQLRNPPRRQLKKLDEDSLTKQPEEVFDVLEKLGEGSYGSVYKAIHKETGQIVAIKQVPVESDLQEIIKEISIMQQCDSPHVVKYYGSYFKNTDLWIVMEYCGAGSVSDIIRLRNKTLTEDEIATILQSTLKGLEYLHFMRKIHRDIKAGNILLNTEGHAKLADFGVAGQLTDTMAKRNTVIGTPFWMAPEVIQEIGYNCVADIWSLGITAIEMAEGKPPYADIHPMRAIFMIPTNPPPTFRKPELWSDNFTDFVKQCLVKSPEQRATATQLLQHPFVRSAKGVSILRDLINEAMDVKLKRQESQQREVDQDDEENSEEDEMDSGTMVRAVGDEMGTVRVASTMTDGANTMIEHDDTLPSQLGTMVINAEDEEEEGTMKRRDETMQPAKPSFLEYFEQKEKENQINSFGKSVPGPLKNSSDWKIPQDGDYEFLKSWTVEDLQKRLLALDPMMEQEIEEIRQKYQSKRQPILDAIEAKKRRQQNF

[8] = biological target: Death-associated protein kinase 2 (Homo sapiens) (UniProt Q9UIK4); conditions: Compound concentration 1000.0 nM
Chain of Death-associated protein kinase 2 (Homo sapiens) (Q9UIK4 whole entry, looked up): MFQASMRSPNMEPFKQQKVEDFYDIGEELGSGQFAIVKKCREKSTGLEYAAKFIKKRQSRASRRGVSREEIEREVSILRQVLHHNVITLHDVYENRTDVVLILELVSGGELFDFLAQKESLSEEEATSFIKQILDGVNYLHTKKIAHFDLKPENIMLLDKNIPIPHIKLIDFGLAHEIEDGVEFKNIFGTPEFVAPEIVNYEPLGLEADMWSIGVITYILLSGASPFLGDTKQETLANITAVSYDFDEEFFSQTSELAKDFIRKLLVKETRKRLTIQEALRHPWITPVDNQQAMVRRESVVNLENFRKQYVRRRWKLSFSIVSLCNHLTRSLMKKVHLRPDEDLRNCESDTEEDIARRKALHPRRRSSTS

[9] = test system: Proto-oncogene tyrosine-protein kinase receptor Ret (Homo sapiens), P07949 [V804M]; conditions: Compound concentration 1000.0 nM
[10] = biological target: Dual specificity protein kinase CLK4 (Homo sapiens) (UniProt Q9HAZ1); conditions: Compound concentration 1000.0 nM
[11] = biological target: Cyclin-dependent kinase 13 (Homo sapiens) (UniProt Q14004); conditions: Compound concentration 1000.0 nM
[12] = biological target: Mitogen-activated protein kinase kinase kinase 10 (Homo sapiens) (UniProt Q02779); conditions: Compound concentration 1000.0 nM
[13] = biological target: Interleukin-1 receptor-associated kinase 1 (Homo sapiens) (UniProt P51617); conditions: Compound concentration 1000.0 nM
[14] = biological target: Protein kinase C delta type (Homo sapiens) (UniProt Q05655); conditions: Compound concentration 1000.0 nM
[15] = biological target: Receptor-interacting serine/threonine-protein kinase 1 (Homo sapiens) (UniProt Q13546); conditions: Compound concentration 1000.0 nM
[16] = biological target: Serine/threonine-protein kinase D3 (Homo sapiens) (UniProt O94806); conditions: Compound concentration 1000.0 nM
[17] = biological target: G protein-coupled receptor kinase 4 (Homo sapiens) (UniProt P32298); conditions: Compound concentration 1000.0 nM
[18] = biological target: Mast/stem cell growth factor receptor Kit (Homo sapiens) (UniProt P10721); conditions: Compound concentration 1000.0 nM
[19] = biological target: Cyclin-dependent kinase 2 homolog (Plasmodium falciparum (isolate 3D7)) (UniProt P61075); conditions: Compound concentration 1000.0 nM
[20] = biological target: Serine/threonine-protein kinase PLK3 (Homo sapiens) (UniProt Q9H4B4); conditions: Compound concentration 1000.0 nM
[21] = biological target: Mitogen-activated protein kinase 8 (Homo sapiens) (UniProt P45983); conditions: Compound concentration 1000.0 nM
[22] = biological target: Activin receptor type-1B (Homo sapiens) (UniProt P36896); conditions: Compound concentration 1000.0 nM
Chain of Activin receptor type-1B (Homo sapiens) (P36896 whole entry): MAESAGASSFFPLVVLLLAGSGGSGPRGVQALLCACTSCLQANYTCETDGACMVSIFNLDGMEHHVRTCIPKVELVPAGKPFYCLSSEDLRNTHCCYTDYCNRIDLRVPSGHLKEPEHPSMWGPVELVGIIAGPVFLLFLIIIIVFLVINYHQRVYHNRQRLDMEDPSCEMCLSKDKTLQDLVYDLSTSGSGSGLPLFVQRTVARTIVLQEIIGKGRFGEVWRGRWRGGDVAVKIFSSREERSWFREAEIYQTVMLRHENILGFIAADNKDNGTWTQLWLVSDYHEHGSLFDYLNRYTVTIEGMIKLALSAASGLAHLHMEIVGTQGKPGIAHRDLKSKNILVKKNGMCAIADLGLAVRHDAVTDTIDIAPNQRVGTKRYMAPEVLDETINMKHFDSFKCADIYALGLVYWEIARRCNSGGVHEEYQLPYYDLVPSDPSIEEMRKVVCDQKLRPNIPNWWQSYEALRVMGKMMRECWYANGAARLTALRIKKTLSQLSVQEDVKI

[23] = biological target: Myosin-IIIb (Homo sapiens) (UniProt Q8WXR4); conditions: Compound concentration 1000.0 nM
[24] = biological target: Ephrin type-A receptor 7 (Homo sapiens) (UniProt Q15375); conditions: Compound concentration 1000.0 nM
Chain of Ephrin type-A receptor 7 (Homo sapiens) (Q15375 28-998 limits assumed): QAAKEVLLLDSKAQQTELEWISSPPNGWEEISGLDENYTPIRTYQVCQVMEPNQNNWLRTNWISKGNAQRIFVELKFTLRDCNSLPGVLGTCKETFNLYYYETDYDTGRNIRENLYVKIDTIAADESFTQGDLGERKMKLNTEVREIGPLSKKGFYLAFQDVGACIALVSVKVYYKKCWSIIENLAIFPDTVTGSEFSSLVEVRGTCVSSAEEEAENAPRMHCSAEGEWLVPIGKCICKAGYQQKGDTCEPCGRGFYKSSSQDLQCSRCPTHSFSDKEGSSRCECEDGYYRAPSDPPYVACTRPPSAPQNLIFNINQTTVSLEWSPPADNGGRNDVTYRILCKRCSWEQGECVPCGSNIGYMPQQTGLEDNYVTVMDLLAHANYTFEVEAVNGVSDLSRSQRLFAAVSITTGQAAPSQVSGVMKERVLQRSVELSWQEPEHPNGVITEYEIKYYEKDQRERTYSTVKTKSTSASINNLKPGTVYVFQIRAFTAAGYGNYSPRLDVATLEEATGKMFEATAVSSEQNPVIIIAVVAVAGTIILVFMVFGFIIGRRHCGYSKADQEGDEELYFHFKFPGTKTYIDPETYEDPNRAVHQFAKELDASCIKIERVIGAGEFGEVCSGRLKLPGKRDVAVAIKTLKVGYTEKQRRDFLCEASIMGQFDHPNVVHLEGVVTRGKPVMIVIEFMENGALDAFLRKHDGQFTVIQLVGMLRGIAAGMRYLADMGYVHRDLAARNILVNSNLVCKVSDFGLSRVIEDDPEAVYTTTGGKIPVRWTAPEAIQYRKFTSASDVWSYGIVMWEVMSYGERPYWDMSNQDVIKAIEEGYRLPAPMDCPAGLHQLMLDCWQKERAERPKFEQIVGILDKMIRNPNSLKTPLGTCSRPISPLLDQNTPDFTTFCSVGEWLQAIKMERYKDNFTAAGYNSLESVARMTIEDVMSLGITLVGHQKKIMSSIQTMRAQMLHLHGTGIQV

[25] = biological target: Activin receptor type-1-like (Homo sapiens) (UniProt P37023); conditions: Compound concentration 1000.0 nM
[26] = test system: Proto-oncogene tyrosine-protein kinase receptor Ret (Homo sapiens), P07949 [V804L]; conditions: Compound concentration 1000.0 nM
[27] = biological target: Receptor tyrosine-protein kinase erbB-2 (Homo sapiens) (UniProt P04626); conditions: Compound concentration 1000.0 nM
[28] = biological target: Fibroblast growth factor receptor 2 (Homo sapiens) (UniProt P21802); conditions: Compound concentration 1000.0 nM
[29] = biological target: Bone morphogenetic protein receptor type-1A (Homo sapiens) (UniProt P36894); conditions: Compound concentration 1000.0 nM
[30] = biological target: Transient receptor potential cation channel subfamily M member 6 (Homo sapiens) (UniProt Q9BX84); conditions: Compound concentration 1000.0 nM
[31] = biological target: Discoidin domain-containing receptor 2 (Homo sapiens) (UniProt Q16832); conditions: Compound concentration 1000.0 nM
[32] = biological target: Serine/threonine-protein kinase tousled-like 2 (Homo sapiens) (UniProt Q86UE8); conditions: Compound concentration 1000.0 nM
[33] = biological target: MAP/microtubule affinity-regulating kinase 4 (Homo sapiens) (UniProt Q96L34); conditions: Compound concentration 1000.0 nM
Chain of MAP/microtubule affinity-regulating kinase 4 (Homo sapiens) (Q96L34 whole entry): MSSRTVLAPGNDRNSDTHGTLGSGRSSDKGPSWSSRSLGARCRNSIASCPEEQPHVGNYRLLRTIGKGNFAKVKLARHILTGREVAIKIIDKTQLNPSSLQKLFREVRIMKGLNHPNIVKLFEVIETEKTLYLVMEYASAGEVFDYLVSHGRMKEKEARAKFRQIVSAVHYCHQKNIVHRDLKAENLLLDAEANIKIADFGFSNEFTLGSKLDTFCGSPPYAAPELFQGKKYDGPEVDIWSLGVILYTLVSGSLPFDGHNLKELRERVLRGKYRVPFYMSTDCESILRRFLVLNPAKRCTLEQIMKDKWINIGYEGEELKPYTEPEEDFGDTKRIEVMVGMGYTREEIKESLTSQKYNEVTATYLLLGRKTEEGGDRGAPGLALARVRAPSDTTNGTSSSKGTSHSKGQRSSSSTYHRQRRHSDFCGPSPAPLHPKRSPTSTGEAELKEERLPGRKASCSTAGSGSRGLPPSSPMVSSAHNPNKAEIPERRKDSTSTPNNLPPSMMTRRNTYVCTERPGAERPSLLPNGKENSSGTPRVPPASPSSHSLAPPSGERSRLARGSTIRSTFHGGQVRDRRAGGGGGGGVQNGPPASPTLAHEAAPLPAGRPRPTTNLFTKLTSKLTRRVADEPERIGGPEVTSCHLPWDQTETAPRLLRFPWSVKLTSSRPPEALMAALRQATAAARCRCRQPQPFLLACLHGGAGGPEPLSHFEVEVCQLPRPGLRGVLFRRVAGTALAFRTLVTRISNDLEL

[34] = biological target: Mitogen-activated protein kinase kinase kinase 12 (Homo sapiens) (UniProt Q12852); conditions: Compound concentration 1000.0 nM
[35] = test system: Epidermal growth factor receptor (Homo sapiens), P00533 [T790M]; conditions: Compound concentration 1000.0 nM
[36] = biological target: Dual specificity mitogen-activated protein kinase kinase 7 (Homo sapiens) (UniProt O14733); conditions: Compound concentration 1000.0 nM
Chain of Dual specificity mitogen-activated protein kinase kinase 7 (Homo sapiens) (O14733 whole entry): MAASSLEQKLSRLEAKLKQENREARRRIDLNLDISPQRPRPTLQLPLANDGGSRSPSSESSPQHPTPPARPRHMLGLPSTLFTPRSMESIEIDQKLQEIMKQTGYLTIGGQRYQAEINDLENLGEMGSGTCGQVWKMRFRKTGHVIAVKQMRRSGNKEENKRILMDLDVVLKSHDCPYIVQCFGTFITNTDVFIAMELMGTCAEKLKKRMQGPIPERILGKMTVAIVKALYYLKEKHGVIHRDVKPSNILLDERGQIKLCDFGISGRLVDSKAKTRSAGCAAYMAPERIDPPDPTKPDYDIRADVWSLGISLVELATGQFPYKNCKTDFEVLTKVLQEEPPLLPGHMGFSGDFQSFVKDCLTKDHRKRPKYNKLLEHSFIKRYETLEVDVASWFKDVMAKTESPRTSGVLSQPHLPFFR

[37] = biological target: Angiopoietin-1 receptor (Homo sapiens) (UniProt Q02763); conditions: Compound concentration 1000.0 nM
[38] = biological target: Receptor-type tyrosine-protein kinase FLT3 (Homo sapiens) (UniProt P36888); conditions: Compound concentration 1000.0 nM
[39] = biological target: Mitogen-activated protein kinase kinase kinase 20 (Homo sapiens) (UniProt Q9NYL2); conditions: Compound concentration 1000.0 nM
[40] = biological target: Calcium/calmodulin-dependent protein kinase type II subunit gamma (Homo sapiens) (UniProt Q13555); conditions: Compound concentration 1000.0 nM
[41] = biological target: Dual specificity protein kinase CLK2 (Homo sapiens) (UniProt P49760); conditions: Compound concentration 1000.0 nM
[42] = biological target: Alpha-2B adrenergic receptor (Homo sapiens) (UniProt P18089); conditions: Compound concentration 10.0 uM
[43] = biological target: Inhibitor of nuclear factor kappa-B kinase subunit beta (Homo sapiens) (UniProt O14920); conditions: Compound concentration 1000.0 nM
Chain of Inhibitor of nuclear factor kappa-B kinase subunit beta (Homo sapiens) (O14920 whole entry): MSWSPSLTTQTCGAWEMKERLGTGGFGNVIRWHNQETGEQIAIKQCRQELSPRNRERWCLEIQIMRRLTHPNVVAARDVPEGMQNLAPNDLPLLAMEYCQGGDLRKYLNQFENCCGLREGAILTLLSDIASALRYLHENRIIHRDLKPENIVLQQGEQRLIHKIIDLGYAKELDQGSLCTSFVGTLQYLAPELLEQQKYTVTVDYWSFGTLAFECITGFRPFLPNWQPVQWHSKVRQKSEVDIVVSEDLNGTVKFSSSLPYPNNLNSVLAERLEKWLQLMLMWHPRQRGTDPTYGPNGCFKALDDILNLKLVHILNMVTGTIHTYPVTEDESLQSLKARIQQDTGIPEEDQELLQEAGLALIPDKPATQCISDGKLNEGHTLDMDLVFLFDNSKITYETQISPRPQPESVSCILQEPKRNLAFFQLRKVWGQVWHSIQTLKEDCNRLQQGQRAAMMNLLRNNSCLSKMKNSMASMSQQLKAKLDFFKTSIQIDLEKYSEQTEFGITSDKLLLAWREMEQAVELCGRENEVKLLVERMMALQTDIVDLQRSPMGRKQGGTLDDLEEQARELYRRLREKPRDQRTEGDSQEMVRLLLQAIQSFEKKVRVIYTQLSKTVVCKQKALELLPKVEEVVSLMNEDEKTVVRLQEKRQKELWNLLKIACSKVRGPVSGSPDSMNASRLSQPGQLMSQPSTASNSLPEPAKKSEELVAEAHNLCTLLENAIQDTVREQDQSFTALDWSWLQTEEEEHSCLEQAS

[44] = biological target: Ephrin type-B receptor 3 (Homo sapiens) (UniProt P54753); conditions: Compound concentration 1000.0 nM
[45] = test system: Receptor-type tyrosine-protein kinase FLT3 (Homo sapiens), P36888 [D835V]; conditions: Compound concentration 1000.0 nM

Cc1nc(N2CC[C@@H](O)C2)ncc1-c1cc(C(F)(F)F)cc2[nH]ncc12 [TP-004]
inactive: residual activity [1] 81% | inhibition [2] -8.45% | residual activity [3] 98% | residual activity [4] 100% | residual activity [5] 76% | residual activity [6] 89% | residual activity [7] 83% | residual activity [8] 100% | residual activity [9] 96% | residual activity [10] 92% | residual activity [11] 90% | residual activity [12] 100% | residual activity [13] 100% | residual activity [14] 94% | residual activity [15] 100% | residual activity [16] 100% | residual activity [17] 86% | residual activity [18] 67% | residual activity [19] 61% | residual activity [20] 78% | residual activity [21] 100% | residual activity [22] 100% | residual activity [23] 93% | residual activity [24] 63% | residual activity [25] 100% | residual activity [26] 100% | residual activity [27] 87% | residual activity [28] 100% | residual activity [29] 100% | residual activity [30] 52% | residual activity [31] 75% | residual activity [32] 100% | residual activity [33] 80% | residual activity [34] 99% | residual activity [35] 93% | residual activity [36] 64% | residual activity [37] 100% | residual activity [38] 87% | residual activity [39] 100% | residual activity [40] 100% | residual activity [41] 100% | inhibition [42] 12.5% | residual activity [43] 77% | residual activity [44] 100% | residual activity [45] 58%
